Assay results reported in ChEMBL document CHEMBL1201862, “PubChem BioAssay data set” (2004).
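A five-concentration, 48-hour dose response in 96-well plates underlies each endpoint, interpolated linearly between surrounding concentrations. GI50 marks 50% less growth.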 Activity calls are given as the source filed them. Cut-off read from the data, not from the text of the source: active = GI50 up to about 1.1 µM and inactive = higher.

Columns and labels:
Assay in all cases: DTP human tumour cell line panel, 48 h
[1] = tested on: A498
[2] = tested on: SK-OV-3
[3] = tested on: Malme-3M
[4] = tested on: LOX IMVI
[5] = tested on: MDA-MB-231
[6] = tested on: CCRF-CEM
[7] = tested on: OVCAR-4
[8] = tested on: HT-29
[9] = tested on: HCT-116
[10] = tested on: OVCAR-5
[11] = tested on: K562
[12] = tested on: U-251
[13] = tested on: NCI-H522
[14] = tested on: MCF7
[15] = tested on: SK-MEL-28
[16] = tested on: MDA-MB-435
[17] = tested on: MOLT-4
[18] = tested on: SNB-75
[19] = tested on: SF-295
[20] = tested on: SF-539

Row | SMILES | GI50 [1] | GI50 [2] | GI50 [3] | GI50 [4] | GI50 [5] | GI50 [6] | GI50 [7] | GI50 [8] | GI50 [9] | GI50 [10] | GI50 [11] | GI50 [12] | GI50 [13] | GI50 [14] | GI50 [15] | GI50 [16] | GI50 [17] | GI50 [18] | GI50 [19] | GI50 [20]
1 | COc1cc(/C=N\O)cc(/C=N/O)c1O | 43.8 µM (inactive) | 30.3 µM (inactive) | 27.7 µM (inactive) | 40.9 µM (inactive) | 47.3 µM (inactive) | 12.1 µM (inactive) | > 100 µM (inactive) | 39.4 µM (inactive) | 33.4 µM (inactive) | 44.3 µM (inactive) | 71.9 µM (inactive) | 37.9 µM (inactive) | 75.9 µM (inactive) | 60.8 µM (inactive) | 38.5 µM (inactive) | 40 µM (inactive) | 25.7 µM (inactive) | 80.7 µM (inactive) | 17.1 µM (inactive) | 24.4 µM (inactive)
2 | CC(=O)OC1CC[C@@]2(C)C(=CC[C@@H]3[C@@H]2CC[C@]2(C)Nc4c(cnn4-c4ccc(F)cc4)C[C@@H]32)C1 (stereo not given in full) | 19.8 µM (inactive) | 32.1 µM (inactive) | 9.35 µM (inactive) | 7.85 µM (inactive) | 33 µM (inactive) | 6.46 µM (inactive) | > 53.5 µM (inactive) | 13.2 µM (inactive) | 7.4 µM (inactive) | > 87.5 µM (inactive) | 21.4 µM (inactive) | 7.43 µM (inactive) | 68.4 µM (inactive) | > 34.8 µM (inactive) | 15.1 µM (inactive) | 39.4 µM (inactive) | 2.02 µM (inactive) | 16.8 µM (inactive) | 4.53 µM (inactive) | 5.33 µM (inactive)
3 | N#Cc1c2c(c(Nc3ccc(F)cc3)n3c1nc1ccccc13)CCC2 | 12.9 µM (inactive) | 9.93 µM (inactive) | 7.41 µM (inactive) | 2.13 µM (inactive) | 3.61 µM (inactive) | 0.791 µM (active) | 10 µM (inactive) | 1.87 µM (inactive) | 1.76 µM (inactive) | 5.02 µM (inactive) | 9.44 µM (inactive) | 2.84 µM (inactive) | 2.2 µM (inactive) | 3.32 µM (inactive) | 9.27 µM (inactive) | 3.25 µM (inactive) | 7.73 µM (inactive) | 6.18 µM (inactive) | 5.05 µM (inactive) | 3.46 µM (inactive)
4 | CC(O)C(NC(=O)C(CS)NC(=O)C(CO)NC(=O)C(CCCCN)NC(=O)C(Cc1c[nH]c2ccccc12)NC(=O)C(Cc1ccc(O)cc1)NC(=O)C(CS)NC(=O)C(N)Cc1ccccc1)C(N)=O (stereo not given) | > 25 µM (inactive) | > 25 µM (inactive) | > 25 µM (inactive) | > 25 µM (inactive) | > 25 µM (inactive) | > 25 µM (inactive) | 8.53 µM (inactive) | > 25 µM (inactive) | > 25 µM (inactive) | > 25 µM (inactive) | > 25 µM (inactive) | > 25 µM (inactive) | > 25 µM (inactive) | > 25 µM (inactive) | 26.9 µM (inactive) | > 25 µM (inactive) | > 25 µM (inactive) | 25 µM (inactive) | > 25 µM (inactive) | > 25 µM (inactive)
5 | Cc1cn2c(C)csc2c1P(=O)(OC(C)C)OC(C)C | > 100 µM (inactive) | > 100 µM (inactive) | > 100 µM (inactive) | > 100 µM (inactive) | 31.3 µM (inactive) | > 100 µM (inactive) | > 100 µM (inactive) | > 100 µM (inactive) | > 100 µM (inactive) | > 100 µM (inactive) | > 100 µM (inactive) | > 100 µM (inactive) | > 100 µM (inactive) | > 100 µM (inactive) | > 100 µM (inactive) | > 100 µM (inactive) | > 100 µM (inactive) | > 100 µM (inactive) | > 100 µM (inactive) | > 100 µM (inactive)
6 | CCc1nc(N)nc(N)c1-c1ccc([N+](=O)[O-])c(Cl)c1 | 27 µM (inactive) | 27.5 µM (inactive) | > 100 µM (inactive) | 1.44 µM (inactive) | 37.3 µM (inactive) | 2.36 µM (inactive) | 46.5 µM (inactive) | 1.78 µM (inactive) | 0.457 µM (active) | 25.2 µM (inactive) | 0.227 µM (active) | 3.1 µM (inactive) | 6.1 µM (inactive) | 4.55 µM (inactive) | 36.5 µM (inactive) | 1.99 µM (inactive) | 4.27 µM (inactive) | 28.2 µM (inactive) | 2.59 µM (inactive) | 3.76 µM (inactive)
